Results published in ChEMBL document CHEMBL5584340, “Discovery of Novel Antiosteoporosis Leads with Bone Resorption Inhibition and Anabolic Promotion through a Chemotype-Assembly Approach” (J Med Chem, 2024).
Calls of active or inactive are those of the source. No cut-off for these calls is given here.

Experiments:
C3H 10T1/2 [1] = assay: Anabolic activity in mouse C3H 10T1/2 cells by measuring fold change in osteoblast differentiation at 10 uM incubated for 7 days by ALP staining based analysis; type: functional; conditions: time 7 day
C3H 10T1/2 [2] = assay: Induction of osteoblast differentiation in mouse C3H 10T1/2 cells at 10 uM incubated for 7 days by ALP staining based analysis; type: functional, cell-based; conditions: time 7.0 day
C3H 10T1/2 [3] = assay: Induction of osteoblastogenesis in mouse C3H 10T1/2 cells assessed as upregulation of ALP gene expression at 1 uM incubated for 7 days by RT-qPCR analysis; type: functional, cell-based; conditions: time 7.0 day
C3H 10T1/2 [4] = assay: Induction of osteoblast mineralization in mouse C3H 10T1/2 cells assessed as increase in calcium deposition at 10 uM measured after 14 days by Alizarin Red S staining based analysis; type: functional, cell-based; conditions: time 14.0 day
C3H 10T1/2 [5] = assay: Induction of osteoclastogenesis in mouse C3H 10T1/2 cells assessed as upregulation of RANKL gene expression at 1 uM incubated for 7 days by RT-qPCR analysis; type: functional, cell-based; conditions: time 7.0 day
[6] = Cytotoxicity against mouse RAW264.7 cells incubated for 48 hrs by CCK-8 assay; type: toxicity, cell-based
BMDM [7] = assay: Anti-osteoclastogenic activity in M-CSF/RANKL-induced C57BL/6 mouse BMDM cells assessed as inhibition of M-CSF/RANKL-stimulated osteoclast differentiation at 10 uM measured after 5 days by TRAP staining based microscopic analysis relative to control; type: functional; design: scale not given: the % may be the effect or the level left; conditions: time 5 day
C3H 10T1/2 [8] = assay: Induction of osteoblastogenesis in mouse C3H 10T1/2 cells assessed as upregulation of SPARC gene expression at 1 uM incubated for 7 days by RT-qPCR analysis; type: functional, cell-based; conditions: time 7.0 day
BMDM [9] = assay: Anti-osteoclastogenic activity in M-CSF/RANKL-induced C57BL/6 mouse BMDM cells assessed as inhibition of M-CSF/RANKL-stimulated osteoclast differentiation measured after 5 days by TRAP staining based microscopic analysis; type: functional, cell-based; conditions: C57BL/6, BMDM, 120 h
C3H 10T1/2 [10] = assay: Induction of osteoblastogenesis in mouse C3H 10T1/2 cells assessed as upregulation of SP7 gene expression at 1 uM incubated for 7 days by RT-qPCR analysis; type: functional, cell-based; conditions: time 7.0 day
BMDM [11] = assay: Anti-osteoclastogenic activity in M-CSF/RANKL-induced C57BL/6 mouse BMDM cells assessed as downregulation of CTSK mRNA expression at 1 uM incubated for 7 days by RT-qPCR analysis; type: functional, cell-based; conditions: time 7.0 day
BMDM [12] = assay: Anti-osteoclastogenic activity in M-CSF/RANKL-induced C57BL/6 mouse BMDM cells assessed as downregulation of ATP6VOD2 mRNA expression at 1 uM incubated for 7 days by RT-qPCR analysis; type: functional, cell-based; conditions: time 7.0 day
C3H 10T1/2 [13] = assay: Induction of osteoblast mineralization in mouse C3H 10T1/2 cells assessed as increase in calcium deposition at 1 uM measured after 14 days by Alizarin Red S staining based analysis; type: functional, cell-based; conditions: time 14.0 day
BMDM [14] = assay: Anti-osteoclastogenic activity in M-CSF/RANKL-induced C57BL/6 mouse BMDM cells assessed as downregulation of C-Fos mRNA expression at 1 uM incubated for 7 days by RT-qPCR analysis; type: functional, cell-based; conditions: time 7.0 day
BMDM [15] = assay: Anti-osteoclastogenic activity in M-CSF/RANKL-induced C57BL/6 mouse BMDM cells assessed as downregulation of TRACP mRNA expression at 1 uM incubated for 7 days by RT-qPCR analysis; type: functional, cell-based; conditions: time 7.0 day

| Structure (SMILES) | Activity (BMDM [7]) [%] | IC50 (BMDM [9]) [µM] | further results |
| --- | --- | --- | --- |
| O=C(O)c1ccccc1C(=O)Nc1nccs1 | 75 | 8.5 | fold change (FC) (C3H 10T1/2 [1]): 11.4; Activity (C3H 10T1/2 [2]): Active; Activity (C3H 10T1/2 [3]): Active; Activity (C3H 10T1/2 [4]): Active; Activity (C3H 10T1/2 [5]): inactive; CC50 at 48 h [6]: 178 µM; Activity (C3H 10T1/2 [8]): Active; Activity (C3H 10T1/2 [10]): Active |
| O=C(Nc1nccs1)c1cccc(O)c1C(=O)O |  | > 33 |  |
| Cc1ccc(-c2cc(C(=O)O)c3ccccc3n2)c(C)c1 | <10 |  |  |
| Cc1cc(C(=O)O)ccc1-c1ccc(CO)o1 | <10 |  |  |
| O=C(O)c1ccc(N2C(=O)CSC2=S)cc1 | 79 |  | fold change (FC) (C3H 10T1/2 [1]): 7.5 |
| Cc1ccc(C)c(-c2cc(C(=O)O)c3ccccc3n2)c1 | <10 |  |  |
| O=C(O)c1cc2ccccc2cc1C(=O)Nc1nccs1 |  | 1.05 | Activity (BMDM [11]): Active; Activity (BMDM [12]): Active; Activity (C3H 10T1/2 [3]): Active; Activity (C3H 10T1/2 [5]): inactive; CC50 at 48 h [6]: 490 µM; Activity (C3H 10T1/2 [13]): Active; Activity (BMDM [14]): Active; Activity (BMDM [15]): Active; Activity (C3H 10T1/2 [8]): Active; Activity (C3H 10T1/2 [10]): Active |
| NCCCC(O)(P(=O)([O-])O)P(=O)(O)O.[Na+] [ALENDRONATE SODIUM] | 81 | 0.39 |  |
| O=C(O)C1OC(Oc2cc3oc(-c4ccc(O)cc4)cc(=O)c3c(O)c2O)C(O)C(O)C1O (configuration not stated) | 80 |  | fold change (FC) (C3H 10T1/2 [1]): <2 |
| O=C(O)c1cc(Cl)ccc1C(=O)Nc1nc2ccccc2s1 |  | 3.5 | CC50 at 48 h [6]: 1330 µM |
| O=C(O)c1cccc(NS(=O)(=O)c2ccc(I)cc2)c1 | <10 |  |  |
| COc1cccc(C(=O)O)c1C(=O)Nc1nccs1 |  | 3.94 | CC50 at 48 h [6]: 36.3 µM |
| O=C(O)c1cccc(Nc2nc3ccccc3[nH]2)c1 | 33 |  |  |
| Cn1ncc2c(Nc3ccc(C(=O)O)cc3)ncnc21 | 50 |  | fold change (FC) (C3H 10T1/2 [1]): 3.2 |
| NC(Cc1cc(I)c(Oc2cc(I)c(O)c(I)c2)c(I)c1)C(=O)O (configuration not stated) [THYROXINE] | <10 |  |  |
| Nc1ccc(-c2cc(C(=O)O)c3ccccc3n2)cc1 | <10 |  |  |
| Cc1cccc(C(=O)Nc2scc(-c3cccs3)c2C(=O)O)c1 | <10 |  |  |
| COc1ccccc1-c1cc(C(=O)O)c2ccccc2n1 | <10 |  |  |
| COc1ccc(-c2cc(C(=O)O)c3ccccc3n2)cc1OC | 40 |  |  |
| O=C(O)c1ccc2[nH]c(-c3cccc(-c4nc5cc(C(=O)O)ccc5[nH]4)c3)nc2c1 | 20 |  |  |
| O=C(O)c1cc(Cl)ccc1C(=O)Nc1nccs1 |  | 2.02 | CC50 at 48 h [6]: 144 µM |
| COc1ccc(-c2occ(C(=O)O)c2C(=O)O)cc1 | <10 |  |  |
| Cc1csc(NC(=O)c2ccccc2C(=O)O)n1 |  | 12.4 | CC50 at 48 h [6]: 212 µM |
| Cc1ccc(C(=O)Nc2nccs2)c(C(=O)O)c1 |  | 12.8 | CC50 at 48 h [6]: 46.9 µM |

| Structure (SMILES) | Activity (BMDM [7]) [%] | IC50 (BMDM [9]) [µM] | further results |
| --- | --- | --- | --- |
| O=C1NC(=O)C(=NNc2cccc(C(=O)O)c2)C(=O)N1 | <10 |  |  |
| CCOC(=O)c1sc(NC(=O)c2cc3ccccc3cc2C(=O)O)nc1C |  | 2.35 | CC50 at 48 h [6]: 506 µM |
| O=C(O)c1ccccc1SCc1cc(O)nc(O)n1 | 90 |  | fold change (FC) (C3H 10T1/2 [1]): 8.2 |
| NC(Cc1cc(I)c(Oc2ccc(O)c(I)c2)c(I)c1)C(=O)O (configuration not stated) [RATHYRONINE] | <10 |  |  |
| O=C(O)c1ccc(-c2cnc3ccccc3n2)cc1 | <10 |  |  |
| Cc1ccc(-c2nc3ccccc3c(C(=O)O)c2C)cc1 | <10 |  |  |
| COc1cccc(-c2cc(C(=O)O)c3ccccc3n2)c1 | <10 |  |  |
| O=C(O)c1ccccc1C(=O)Nc1nc2c(s1)CCCC2 | <10 |  |  |
| Nc1cccc(-c2cc(C(=O)O)c3ccccc3n2)c1 | 50 |  | fold change (FC) (C3H 10T1/2 [1]): <2 |
| Cc1ccc2nc(-c3ccc(Cl)cc3)cc(C(=O)O)c2c1 | 80 |  | fold change (FC) (C3H 10T1/2 [1]): 2.4 |
| CC(C)(C)c1ccc(-c2cc(C(=O)O)c3ccccc3n2)cc1 | 80 |  | fold change (FC) (C3H 10T1/2 [1]): <2 |
| CCc1ccc(-c2cc(C(=O)O)c3ccccc3n2)cc1 | 30 |  |  |
| Cc1cccc(NC(=O)c2ccccc2C(=O)O)c1C | <10 |  |  |
| Cc1cc(C)c(S(=O)(=O)Nc2ccc(C(=O)O)cc2)cc1C | <10 |  |  |
| O=C(Nc1nccs1)c1cccc(F)c1C(=O)O |  | 3.16 | CC50 at 48 h [6]: 930 µM |
| O=C(O)c1ccccc1C(=O)Nc1nc2ccccc2s1 |  | 2.35 | CC50 at 48 h [6]: 380 µM |
| O=C(O)c1ccccc1C(=O)Nc1ccccn1 |  | 14.4 | CC50 at 48 h [6]: 3820 µM |
| Cc1ccc(-c2cc(C(=O)O)c3cccc(C)c3n2)cc1 | <10 |  |  |
| Cc1cccc(C)c1NC(=O)c1ccccc1C(=O)O [FTAXILIDE] | 80 |  | fold change (FC) (C3H 10T1/2 [1]): 6 |
| COC(=O)c1ccccc1C(=O)Nc1nccs1 |  | 28.1 | CC50 at 48 h [6]: 498 µM |
| CN(CCCC(=O)O)c1nc(-c2ccc(Br)cc2)cs1 | <10 |  |  |
| COc1ccc(-c2nc(NC(=O)C3CCCCC3C(=O)O)sc2C)cc1 (configuration not stated) | <10 |  |  |
| CN1C(=O)[C@@H](/N=N/c2ccccc2C(=O)O)N(C)C1=S | 50 |  | fold change (FC) (C3H 10T1/2 [1]): 3.9 |
| CCOC(=O)c1sc(NC(=O)c2ccccc2C(=O)O)nc1C |  | > 33 |  |
